Measurements reported in patent US9974782B2, “Phosphodiesterase inhibitors and uses thereof” (THE TRUSTEES OF COLUMBIA UNIVERSITY IN THE CITY OF NEW YORK, priority 2008, dated 2018).
Values joined by “and” are separate entries in the source; they are usually repeats but may differ in a detail not shown here. Identical values can stand only once. “Also recorded” adds a separate entry of the source.

Assays:
PDE5A1 = PDE5A1 (Homo sapiens, UniProt O76074); assay: PDE assay for compound screening (IMAP TR-FRET kit, FAM-cGMP, fluorescence polarization); format: biochemical; conditions: 100 nM cGMP substrate; read-out: IC50 for PDE5
Experimental: Protocol of PDE Assay for Compound Screening
Materials: IMAPTM TR-FRET Screening Express with Progressive Binding Kit from Molecular Devices (R8160); FAM-Cyclic-3′,5′-GMP from Molecular Devices (R7507); PDE5 inhibitors.
Step 1: A dilution series of the inhibitors ranging from 300 pM to 10 μM in 1× PDE Assay Buffer are made. Subsequently, FAM-cGMP is diluted to 200 nM in 1×PDE Assay Buffer. PDE5A1 enzymes are then diluted to 0.125 ng/μl in 1×PDE Assay Buffer.
Step 2: The following components are added to a low binding black plate: a) […] of 200 nM FAM-cGMP (Final concentration will be 100 nM); b) 5 μl of the compounds (Final concentration=30 pM to 1 μM); c) 20 μl of PDE5A1 (0.125 ng/l) (Final amount=2.5 ng/reaction). The components are mixed and incubated at room temp. for 1 hour.
Step 3: A 1× reagent-binding buffer (75% 1× Binding Buffer A and 25% 1× Binding Buffer B) is then prepared followed by a Binding Solution that is prepared by diluting Binding Reagent with 1× reagent-binding Buffer (1:600). 120 μl of Binding Solution is then added to each well and the plate is incubated at room temperature for 1 hour.
Step 4: Fluorescence polarization is measured at excitation of 485 nm and emission of 520 nm in BioTek Synergy™ 2 microplate reader.

[1] = system: CA1 region of hippocampal slices from APP/PS1 and WT mice; assay: Electrophysiological analysis (BST, LTP) of hippocampal slices perfused with inhibitor; format: cell-based, mouse; conditions: for effect on LTP impairment in words: slices from APP/PS1 (transgenic) mice, 10 min prior to tetanus
[2] = Pharmacokinetics testing, plasma and brain (LC-MS/MS)
Experimental: The pharmacokinetic studies were conducted in male BABL/c mice. The blood and brain samples were collected at predetermined times from three mice per time point. […] An LC-MS/MS method was developed to determine these compounds in plasma and brain samples.
Quantification was achieved by the internal standard method using peak area ratios of the analysis to the internal standard in plasma and brain. Concentrations were calculated using a weighted least-squares linear regression (W=1/×2). The major pharmacokinetic parameters were calculated and the brain-to-plasma distribution ratios were estimated.
The PDE5 inhibitor was prepared by dissolving the test article in 0.5% methyl cellulose to yield final concentrations at 5 mg/mL for PO administration.
Mice were sacrificed by cervical dislocation after blood harvest. The plasma were separated via centrifugation (4° C., 3500 rpm, 10 min) and stored in −80° C. before analysis.
Frozen unknown plasma samples were thawed at room temperature and vortexed thoroughly. With a pipette, 25 μL of plasma was transferred into a 1.5 mL Eppendorf tube. To each sample, 25 μL of methanol and 25 μL of the internal standard were added, followed by the addition of 100-μL methanol. The sample mixture was vortexed for approximately 1 min. After centrifugation at 11000 g for 5 min, the upper organic layer was transferred to a glass tube and evaporated at 40° C. under a gentle stream of nitrogen. Residues were dissolved in 150 μL of the mobile phase, and mixed in a vortex mixer. A 20-μL aliquot of the resulting solution was injected onto the LC/MS/MS system for analysis.
Brains were collected immediately after mice death. The brains were excised, weighed, and rinsed by cold saline and then frozen at −80° C. until further process for LC/MS/MS analysis.
On the day of the assay, the frozen tissue samples were thawed unassisted at room temperature. When completely thawed, each tissue sample of 200 mg was weighed and placed into a plastic tube. Methanol (1.0 mL) was added to facilitate homogenization, which was conducted using a Fluko F6/10 superfine homogenizer for approximately 1 min. Then, the homogenized samples were vortexed for 1 min. A 25-μL aliquot of the homogenized samples was transferred into an Eppendorf tube. To each sample, 25 μL of methanol and 25 μL of the internal standard were added. The sample mixture centrifuged at 11000 g for 5 min. A 20-μL aliquot of the supernatants was diluted to 80 μL or 60 μL with the mobile phase and a 10-μL aliquot was injected onto the LC/MS/MS system for analysis.
We then investigated the PK and BBB penetration capability of YF012403. After p.o. administration at 50 mg/kg to BABL/c mice, plasma and brain concentrations were determined by the LC-MS/MS.

mice infused with Aβ42 = assay: Contextual fear memory in mice infused with Aβ42; format: in vivo, mouse; conditions: 3 or 10 mg/Kg, p.o., immediately after training
Experimental: Our next goal was to check if YF012403 can attenuate synaptic and cognitive dysfunction in APP/PS1 mice. We induced LTP or contextual fear memory in the presence of oligomeric Aβ42, or vehicle [S18]. In the LTP experiments 200 nM Aβ42 or vehicle were perfused through the bath solution for 20 min prior to the application of the θ-burst. In the behavioral experiments 200 nM Aβ42 or vehicle were bilaterally infused 15 min prior to the foot shock into dorsal hippocampus of the animal that had been pre-implanted with a cannula the week before. Aβ reduced LTP and contextual fear memory (FIG. 49). However, YF012403 (50 nM, for 10 min prior to the θ-burst in the LTP experiments; 3 or 10 mg/Kg, p.o., immediately after training in the behavioral experiments) ameliorated the electrophysiological and behavioral deficits (FIG. 49).

CREB phosphorylation = format: cell-based, mouse
[3] = system: isolated rabbit corpus cavernosum; conditions: read-out: EC50, relaxant effect; cited from earlier work
[4] = male, BABL/c, mouse, in vivo, po, 50 mg/kg, half-life in the brain
[5] = male, BABL/c, mouse, in vivo, po, 50 mg/kg, half-life in the plasma
[6] = APP/PS1 slices, sildenafil 50 nM
[7] = WT slices, 120 min after tetanus, sildenafil 50 nM, tadalafil 50 nM, IC354 1 μM
[8] = WT slices, sildenafil or tadalafil 50 nM
[9] = slices of 3-month-old APP/PS1 mice, 120 min after tetanus, 10 min perfusion (sildenafil 50 nM, tadalafil 50 nM, IC354 1 μM)

## COc1ccc(CNc2c(CO)cnc3c(C4CC4)cc(C#N)cc23)cc1Cl [YF012403, 4-(3-chloro-4-methoxybenzylamino)-8-cyclopropyl-3-(hydroxymethyl)-quinoline-6-carbonitrile]
PDE5A1
  IC50: 1.2 nM and 0.27 nM
[1]
  effect on LTP impairment in words: rescues the defect in LTP
[2]; male, BABL/c, mouse, brain, oral, 50 mg/kg
  Kp: 0.41
[2]; male, BABL/c, mouse, in vivo, po, 50 mg/kg
  Cmax: 385 ng/g
[2]; [4]
  half-life: 1.04 h
[2]; [5]
  half-life: 1.33 h
[2]; mouse, in vivo
  log BB: −0.38
[2]; p.o., 50 mg/kg, BABL/c mice
  time of peak plasma concentration after dosing: 0.5 h
Mice infused with Aβ42
  effect on contextual fear memory deficit in Aβ42-infused mice in words: ameliorates the contextual fear memory deficit; also recorded: ameliorated

## CCCc1nn(C)c2c(=O)[nH]c(-c3cc(S(=O)(=O)N4CCN(C)CC4)ccc3OCC)nc12 [sildenafil, 5-[2-ethoxy-5-(4-methyl-1-piperazinylsulphonyl)phenyl]-1-methyl-3-n-propyl-1,6-dihydro-7H-pyrazolo[4,3-d]pyrimidin-7-one]
[1]; [6]
  basal neurotransmission without tetanus as % of vehicle-treated WT slices: ~96%
  basal neurotransmission without tetanus, fEPSP % of baseline: 99.99±3.71%
[1]; [7]
  LTP, fEPSP slope as % of baseline: 213.26±13.66%
  level of LTP as % of vehicle-treated WT slices: ~99%
[1]; [8]
  basal synaptic responses without tetanus as % of vehicle-treated WT slices: ~97%
  basal synaptic responses without tetanus, fEPSP % of baseline: 100.51±2.34%
[1]
  effect on LTP impairment in words: reverses LTP impairment
[1]; slices of 3-month-old APP/PS1 mice
  minimum effective dose that completely rescues synaptic plasticity: 50 nM
[1]; [9]
  LTP, fEPSP slope as % of baseline: 215.08±11.85%
  level of LTP as % of vehicle-treated WT littermates: ~100%
[1]; slices of 6 month old APP/PS1 mice, 500 nM
  LTP as % of vehicle-treated WT slices: 93%
[1]; slices of 6 month old APP/PS1 mice, 10 min bath application
  minimum effective dose that completely rescues LTP: 500 nM
[1]; slices of 6 month old APP/PS1 mice, different concentrations
  effect on BST (fEPSP slope) in words: do not change fEPSP slope
CREB phosphorylation
  phospho-CREB immunofluorescence after tetanus, % of control: 162.58±17.09% and 163.54±13.52% and 163.6±15.14% and 151.73±12.24%
[2]; [4]
  half-life: 0.84 h
[2]; [5]
  half-life: 1.21 h
[3]
  EC50: 8.7 nM
